The record followed here is patent US20240252472A1, “COMBINATIONS FOR TREATING CANCER” (Purdue Pharma L.P., priority 2023, published 2024).

Type in all cases: in vivo
In one assay the test system is MM1S-luc derived tumors. As to the kind of experiment: Disseminated human myeloma model, CB17-SCID mice. To be noted: EDO-S101 15 mg/kg i.v. weekly, daratumumab 8 mg/kg i.p. weekly, 4 weeks; vehicle 33 days. As for the experimental part: MM1S-luc cells (3×10^6) were injected intravenously (i.v.) into CB17-SCID mice which were determined to have normal NK cells, monocytes and granulocytes (The Jackson Laboratory, Bar Harbor, ME, USA). Tumor development was monitored by non-invasive bioluminescence imaging (BLI) with a Xenogen IVIS 50 system (Caliper Life Sciences, Hopkinton, MA, USA). Mice were randomized into four groups (n=5/group): one receiving vehicle (i.v., weekly), another group receiving EDO-S101 (15 mg/kg i.v., weekly on Tuesdays), another group receiving daratumumab (8 mg/kg i.p., weekly on Wednesdays) and the last group receiving the double combination of EDO-S101+daratumumab. Both drugs were administered over a period of 4 weeks.
CB17-SCID mice bearing MM1S-luc derived tumors were treated with EDO-S101, daratumumab, a combination thereof, or vehicle, in accordance with the methods outlined above. MM1S-Luc cells (3×10^6) were intravenously injected into CB17-SCID mice. After 2 weeks, mice were randomized into four groups: one receiving vehicle (i.v., weekly), another group receiving EDO-S101 (15 mg/kg i.v., weekly on Tuesdays), another group receiving daratumumab (8 mg/kg i.p., weekly on Wednesdays) and the last group received the double combination of EDO-S101+daratumumab. Survival of mice analyzed with a Kaplan-Meier curve. Both drugs were administered over a period of 4 weeks.

Assay [1] has as its system subcutaneous plasmacytoma derived from MM1.S cells. Nature of the assay: Second subcutaneous plasmacytoma model, CB17-SCID mice. The following applies: EDO-S101 30 mg/kg i.v. weekly, daratumumab 8 mg/kg i.p. weekly, 4 weeks; vehicle 34 days. The text has this: For the second subcutaneous human plasmacytoma model, CB17-SCID mice (The Jackson Laboratory) were used. CB17-SCID mice were randomised into groups (n=5). The design of the experiment (treatment doses and time schedule) was identical to the experiment described above with NSG mice except for the inoculation of NK cells, since CB17-SCID mice have their own functional NK cells.
For the second subcutaneous human plasmacytoma model, CB17-SCID mice (20 female mice, 5-6 weeks old; from The Jackson Laboratory) were used. The design of the experiment (treatment doses and time schedule) was identical to the one performed with NSG mice except for the inoculation of human NK cells, since CB17-SCID mice hold their own functional NK cells (Dorshkind et al., J Immunol 134:3798-3801, 1985).
In the second xenograft plasmacytoma model, CB17-SCID mice bearing a subcutaneous plasmacytoma derived from MM1.S cells were randomized to receive vehicle, daratumumab, EDO-S101 or the double combination. Mice were treated with EDO-S101 on Mondays and daratumumab was administered on Tuesdays. […] Furthermore, statistical differences in survival were also found between the combination vs vehicle (58 days±2.739 vs 34 days±2.191 days, respectively; p=0.003).

Assay [2] deals with subcutaneous plasmacytoma derived from MM.1S cells. As to the kind of experiment: First subcutaneous plasmacytoma model, NSG mice with human NK cells. To be noted: EDO-S101 30 mg/kg i.v. weekly, daratumumab 8 mg/kg i.p. weekly, 4 weeks; vehicle 30 days. The procedure: For the first subcutaneous human plasmacytoma model, NSG mice (Charles River Laboratories, Wilmington, MA, USA) were subcutaneously inoculated into the right flank with 3×10^6 MM1S in 100 μL RPMI 1640 medium and 100 μL of Matrigel (BD Biosciences). When tumors developed, mice were injected with human NK cells isolated from buffy coats from healthy donors and randomized (4 mice/group) to receive: EDO-S101 (30 mg/kg, iv weekly), daratumumab (8 mg/kg, ip weekly), a combination thereof, or vehicle (PBS vehicle solution with 15% HPBCD, 1.5% acetic acid, and 1.25% NaHCO3). Both, NK cells and the treatments were administered over four consecutive weeks. Caliper measurements of the tumor diameters were performed three times a week, and the tumor volume was estimated as the volume of a 3D ellipse using the following formula: V=4/3π×(a/2)×(b/2)^2, where “a” and “b” correspond to the longest and shortest diameter, respectively. Animals were killed when their tumors reached 2 cm. Differences in tumor volumes between control and treated groups were evaluated using one-way analysis of variance and Dunn's post-hoc tests. […]

For “daratumumab: anti-CD38 monoclonal antibody clinically approved for multiple myeloma [reference compound]”, the median survival with MM1S-luc derived tumors turned out to be 59 days; in assay [2] it was 34 days. In assay [1], the overall median survival amounted to 41 days.
